# From patent US4500516A, “Antibacterial pharmaceutical composition” (priority 1982, dated 1985)
# Where a name gives a salt, the structure may show the parent alone. Read-outs that look alike come from different tables or passages of the source.
# Key:
# [1] = cited from earlier work
# [2] = rabbit, in vivo, po, 5 mg/kg, cited from earlier work; for total quantity removed, of the total quantity administered: 2880 min
# [3] = system: infectious inflammatory diseases; settings: prior-art drugs; cited from earlier work
# [4] = cited from earlier work; remark: listed apart in the source
# [5] = cited from earlier work; remark: listed apart in the source
# [6] = system: pathogenic microorganisms; settings: cited from earlier work
# [7] = prior-art drugs; cited from earlier work
# white mice = settings: cited from earlier work
# in vivo [8] = settings: rabbit, urine, 50 mg/kg
# [9] = cited from earlier work; remark: listed apart in the source
# [10] = system: Staphylococcus aureus haemolyticus; assay: bacteriostatic concentration; assay type: cell-based
# [11] = rabbit, in vivo, 50 mg/kg
# in vivo [12] = settings: rabbit, blood
# Bac. mycoides = assay: microbe, parasite or virus in culture; assay type: cell-based; settings: Bacillus mycoides, read-out: bacteriostatic concentration
# Bac. coil = assay: bacteriostatic concentration; assay type: cell-based
compound,measurement,setting,value
"O=C1CN(N=CC=Cc2ccc([N+](=O)[O-])o2)C(=O)N1 [Furagin, N-[β-(5'-nitrofuryl-2')-acrylidene]-1-aminohydantoin]",intolerance,[1]; in vivo,"in quite a number of cases, said pharmaceutical composition is observed to meet with intolerance"
same,"total quantity removed, of the total quantity administered",[2],2.75±0.41%
same,"concentrations in the urine, Furagin versus Solafur",[2],roughly equal
same,spectrum of action,[3],wider spectrum of therapeutic action than the aforesaid Nitrofurantoin and Furadantin
same,pK,[4],6
same,solubility in water,[5],very poorly soluble in water
"O=C1CN(N=Cc2ccc([N+](=O)[O-])o2)C(=O)N1 [Nitrofurantoin, 1-(5'-nitrofurfurylideneamino)-hydantoin]",intolerance,[1]; medical practice,Sometimes this pharmaceutical composition is observed to meet with intolerance
same,bacteriostatic concentration value,[6]; in words,comparatively high
same,spectrum of action,[3],relatively limited spectrum of action
same,toxicity,[7],noticeably toxic
same,LD50,"white mice; white mice, oral administration",166.7 mg/kg
same,Cmax,in vivo [8],610 µg/mL
same,Tmax,in vivo [8],1 h
same,removal from the organism,[9]; in vivo,quickly removed from the organism
same,absorption from the gastrointestinal tract,[9]; oral,quickly absorbable from the gastrointestinal tract
same,drug concentration in the blood and in the urine,[9]; oral,capable of reaching a level sufficient to produce a therapeutic effect
"O=C1CN(N=CC=Cc2ccc([N+](=O)[O-])o2)C(=O)N1 [Solafur, potassium salt of N-[β-(5'-nitrofuryl-2')-acrylidene]-1-aminohydantoin]",MIC,[10],2.5 µg/mL
same,side effects on faster administration,"[1]; in vivo, iv",headache and nausea
same,intolerance,[1]; in vivo,in some cases this pharmaceutical composition is observed to meet with intolerance
same,total excretion of Solafur with urine,[11],3.43 ± 0.3 mg
same,concentration at 0.25 h,in vivo [12],2.8 µg/mL
same,"total quantity removed, of the total quantity administered",[2],2.83±0.48%
same,"concentrations in the urine, Furagin versus Solafur",[2],roughly equal
same,MIC,Bac. mycoides,2.5 µg/mL
same,synergistic action with antibiotics,"[6]; a range of antibiotics, most pathogenic microorganisms",capability of producing synergistic action with a range of antibiotics upon most pathogenic microorganisms
same,spectrum of action,[3],broader spectrum of action compared to Furagin
same,LD50,"white mice; mouse, in vivo, po",390 mg/kg
same,solubility in water,[5],higher than that of the aforementioned Furagin
same,MIC,Bac. coil,2.5 µg/mL
